Test results: US11738026B2, “Combination therapy comprising an ALK2 inhibitor and a JAK2 inhibitor” (INCYTE CORPORATION, priority 2019, dated 2023)

Test system: C57Bl/6 mice
Experiment: Turpentine-induced anemia in mice on low iron chow; complete blood counts
Assay type: in vivo
Experimental: C57Bl/6 mice (7-8-week-old, female) were purchased from Charles River Laboratories, Wilmington, Mass., and placed on low iron chow (Test Diet #AIN-76A 5TJK) two weeks prior to beginning study. Mice were continued on this diet through the course of the study. Mice were injected subcutaneously in the intrascapular region of the back of the recipient mouse with sterile filtered turpentine (Aldrich, cat #24245), or sterile saline in a 100 ul volume every week for three weeks. Therapeutic agents were orally administered at a total volume of 10 mL/kg body weight. Mice were administered vehicle (0.5% DMAC: […]) or compound (n=10 per dose group) starting shortly after the first turpentine injection (day 0), and continuing every day until the study termination. Blood was collected via by orbital sinus once weekly, and complete blood counts (CBCs) were determined by hematology instrumentation (Abaxis, model HM5). Statistical analyses were performed using Graphpad Prism software. Mice were handled according to Incyte IACUC protocols.
Together these experiments indicate that ALK2 inhibition can reverse the decreases in RBC counts, hemoglobin, and hematocrit brought on by turpentine generated, inflammation induced anemia, and this anti-anemia efficacy from ALK2 inhibition is possible in the presence of ruxolitinib.

[1] = 30 mg/kg BID, day 21 post first turpentine injection, FIG. 2, change statistically significant by unpaired t-test
[2] = 100 mg/kg QD, 28 days post first turpentine injection, FIG. 1
[3] = mice also dosed with ruxolitinib (90 mg/kg BID), FIG. 2 (Compound A 30 mg/kg BID)

For `N#CC[C@H](C1CCCC1)n1cc(-c2ncnc3[nH]ccc23)cn1` [ruxolitinib, (R)-3-(4-(7H-pyrrolo[2,3-d]pyrimidin-4-yl)-1H-pyrazol-1-yl)-3-cyclopentylpropanenitrile, reference compound], the “anemias brought on by turpentine injection” value (90 mg/kg BID, oral, in each experiment) was “exacerbated the anemias”.
In the case of `Nc1ncc(-c2ccc([C@@]34C[C@@H]3CN(C3CCOCC3)C4)cc2)cc1C(=O)NC12CCC(O)(CC1)CC2` [Compound A, 2-amino-N-(4-hydroxybicyclo-[2.2.2]octan-1-yl)-5-(4-((1R,5S)-3-(tetrahydro-2H-pyran-4-yl)-3-azabicyclo-[3.1.0]hexan-1-yl)phenyl)nicotinamide], the hematocrit [1] was “the same trend was demonstrated”, the hemoglobin [1] was “the same trend was demonstrated” and the “red blood cell count” value [1] was “the same trend was demonstrated”. For the same compound, the hematocrit [2] was “levels similar to saline (non-turpentine induced anemia) control”, the hemoglobin [2] was “levels similar to saline (non-turpentine induced anemia) control” and the “red blood cell count” value [2] was “levels similar to saline (non-turpentine induced anemia) control”. The “anemia brought on by turpentine” value (100 mg/kg QD, oral, daily from day 0, turpentine s.c. weekly for three weeks) was “corrected the anemia brought on by turpentine”, the RBC [3] was “significant increases” and the hematocrit levels [3] was “significant increases”. For the same compound, the hemoglobin [3] was “significant increases”.
